# Data as given in patent US8877748B2, “Heterocyclic fused anthraquinone derivatives, manufacturing method and pharmaceutical composition using thereof” (National Defense Medical Center, priority 2012, dated 2014).
# Experiments:
# Format in all cases: cell-based, human
# SF-295 = assay: NCI one-dose screening, CNS cancer SF-295; settings: 10 μM
# UACC-62 = assay: NCI one-dose screening, melanoma UACC-62; settings: 10 μM
# HL-60, TB = assay: NCI one-dose screening, leukemia HL-60, TB; settings: 10 μM
# SNB-19 = assay: NCI one-dose screening, CNS cancer SNB-19; settings: 10 μM
# SF-268 = assay: NCI one-dose screening, CNS cancer SF-268; settings: 10 μM
# NCl/ADR-RES = assay: NCI one-dose screening, breast cancer NCl/ADR-RES; settings: 10 μM; listed under Ovarian cancer
# HCC-2998 = assay: NCI one-dose screening, colon cancer HCC-2998; settings: 10 μM
# EKVX = assay: NCI one-dose screening, non-small cell lung cancer EKVX; settings: 10 μM
# COLO 205 = assay: NCI one-dose screening, colon cancer COLO 205; settings: 10 μM
# M14 = assay: NCI one-dose screening, melanoma M14; settings: 10 μM
# SK-MEL-5 = assay: NCI one-dose screening, melanoma SK-MEL-5; settings: 10 μM
# A549/ATCC = assay: NCI one-dose screening, non-small cell lung cancer A549/ATCC; settings: 10 μM
# ACHN = assay: NCI one-dose screening, renal cancer ACHN; settings: 10 μM
# 786-O = assay: NCI one-dose screening, renal cancer 786-O; settings: 10 μM
# K562cell line = assay: NCI one-dose screening, leukemia K562; settings: 10 μM
# HCT-116 = assay: NCI one-dose screening, colon cancer HCT-116; settings: 10 μM
# UACC-257 = assay: NCI one-dose screening, melanoma UACC-257; settings: 10 μM
# OVCAR-4 = assay: NCI one-dose screening, ovarian cancer OVCAR-4; settings: 10 μM
# NCI-H460 = assay: NCI one-dose screening, non-small cell lung cancer NCI-H460; settings: 10 μM
# SN12C = assay: NCI one-dose screening, renal cancer SN12C; settings: 10 μM
# HCT-15 = assay: NCI one-dose screening, colon cancer HCT-15; settings: 10 μM
# RXF, 393 = assay: NCI one-dose screening, renal cancer RXF, 393; settings: 10 μM
# HT29 = assay: NCI one-dose screening, colon cancer HT29; settings: 10 μM
# [1] = tested on: PC-3 prostate cancer cell line; assay: SRB assay cell viability, PC-3 prostate cancer cell line; settings: Homo sapiens, PC-3 prostate cancer cell line, Table II prints no unit, μM printed, read-out: SRB assay: 50% inhibition of cancer cell proliferation of sample concentration (IC50) of PC-3 prostate cancer cell line
# CAKI-1 = assay: NCI one-dose screening, renal cancer CAKI-1; settings: 10 μM
# PRMI-8226 cell line = assay: NCI one-dose screening, leukemia PRMI-8226; settings: 10 μM
# SNB-75 = assay: NCI one-dose screening, CNS cancer SNB-75; settings: 10 μM
# HOP-62 = assay: NCI one-dose screening, non-small cell lung cancer HOP-62; settings: 10 μM
# U251 = assay: NCI one-dose screening, CNS cancer U251; settings: 10 μM
# NCI-H522 = assay: NCI one-dose screening, non-small cell lung cancer NCI-H522; settings: 10 μM
# OVCAR-3 = assay: NCI one-dose screening, ovarian cancer OVCAR-3; settings: 10 μM
# MOLT-4 = assay: NCI one-dose screening, leukemia MOLT-4; settings: 10 μM
# OVCAR-5 = assay: NCI one-dose screening, ovarian cancer OVCAR-5; settings: 10 μM
# SK-MEL-28 = assay: NCI one-dose screening, melanoma SK-MEL-28; settings: 10 μM
# NCI-H322M = assay: NCI one-dose screening, non-small cell lung cancer NCI-H322M; settings: 10 μM; Non-small cell lung cancer
# SK-MEL-2 = assay: NCI one-dose screening, melanoma SK-MEL-2; settings: 10 μM
# MALME-3M = assay: NCI one-dose screening, melanoma MALME-3M; settings: 10 μM
# SR = assay: NCI one-dose screening, leukemia SR; settings: 10 μM
# NCI-H23 = assay: NCI one-dose screening, non-small cell lung cancer NCI-H23; settings: 10 μM
# KM12 = assay: NCI one-dose screening, colon cancer KM12; settings: 10 μM
# NCI-H226 = assay: NCI one-dose screening, non-small cell lung cancer NCI-H226; settings: 10 μM
# MDA, -MB-435 = assay: NCI one-dose screening, breast cancer MDA, -MB-435; settings: 10 μM; listed under Melanoma
# SF-539 = assay: NCI one-dose screening, CNS cancer SF-539; settings: 10 μM
# LOX IMVI = assay: NCI one-dose screening, melanoma LOX IMVI; settings: 10 μM
# OVCAR-8 = assay: NCI one-dose screening, ovarian cancer OVCAR-8; settings: 10 μM
# IGROV1 = assay: NCI one-dose screening, ovarian cancer IGROV1; settings: 10 μM
# TK-10 = assay: NCI one-dose screening, renal cancer TK-10; settings: 10 μM
# CCRF-CEM = assay: NCI screening platform one-dose single concentration screening, leukemia CCRF-CEM; settings: 10 μM
smiles,measurement,setting,value
"CCSc1cc2c(c3nsnc13)C(=O)c1ccccc1C2=O [C16, 4-(ethylthio)anthra[2,1-c][1,2,5] thiadiazol-6,11-dione]",Growth Percent SF-295,SF-295,79.94%
same,Growth Percent UACC-62,UACC-62,−38.24%
same,Growth Percent HL-60(TB),"HL-60, TB",−45.01%
same,Growth Percent SNB-19,SNB-19,83.19%
same,Growth Percent SF-268,SF-268,−54.89%
same,Growth Percent NCI/ADR-RES,NCl/ADR-RES,−37.28%
same,Growth Percent HCC-2998,HCC-2998,90.47%
same,Growth Percent EKVX,EKVX,56.13%
same,Growth Percent COLO 205,COLO 205,97.05%
same,Growth Percent M14,M14,47.15%
same,Growth Percent SK-MEL-5,SK-MEL-5,−94.86%
same,Growth Percent A549/ATCC,A549/ATCC,20.39%
same,Growth Percent ACHN,ACHN,−44.97%
same,Growth Percent 786-0,786-O,80.27%
same,Growth Percent K562,K562cell line,−44.64%
same,Growth Percent HCT-116,HCT-116,−82.82%
same,Growth Percent UACC-257,UACC-257,−86.35%
same,Growth Percent OVCAR-4,OVCAR-4,−100.00%
same,Growth Percent NCI-H460,NCI-H460,27.92%
same,Growth Percent SN12C,SN12C,−61.79%
same,Growth Percent HCT-15,HCT-15,2.65%
same,Growth Percent RXF 393,"RXF, 393",−62.42%
same,Growth Percent HT29,HT29,77.39%
same,IC50,[1],5.39 µM
same,Growth Percent CAKI-1,CAKI-1,−1.76%
same,Growth Percent RPMI-8226,PRMI-8226 cell line,−35.20%
same,Growth Percent SNB-75,SNB-75,33.65%
same,Growth Percent HOP-62,HOP-62,2.44%
same,Growth Percent U251,U251,−73.58%
same,Growth Percent NCI-H522,NCI-H522,−88.01%
same,Growth Percent OVCAR-3,OVCAR-3,−76.39%
same,Growth Percent MOLT-4,MOLT-4,−50.44%
same,Growth Percent OVCAR-5,OVCAR-5,115.03%
same,Growth Percent SK-MEL-28,SK-MEL-28,−41.99%
same,Growth Percent NCI-H322M,NCI-H322M,89.71%
same,Growth Percent SK-MEL-2,SK-MEL-2,−69.35%
same,Growth Percent MALME-3M,MALME-3M,−58.68%
same,Growth Percent SR,SR,−54.27%
same,Growth Percent NCI-H23,NCI-H23,−25.43%
same,Growth Percent KM12,KM12,69.33%
same,Growth Percent NCI-H226,NCI-H226,53.41%
same,Growth Percent MDA-MB-435,"MDA, -MB-435",−61.08%
same,Growth Percent SF-539,SF-539,−22.78%
same,Growth Percent LOX IMVI,LOX IMVI,−91.42%
same,Growth Percent OVCAR-8,OVCAR-8,−79.84%
same,Growth Percent IGROV1,IGROV1,−54.45%
same,Growth Percent TK-10,TK-10,103.17%
same,Growth Percent CCRF-CEM,CCRF-CEM,−35.53%
